Measurements reported in patent US20110034466A1, “NOVEL FIVE-MEMBERED RING COMPOUND” (priority 2008, published 2011).

Experiments:
rat lung membrane SMBS = test: Receptor-binding assessment test using rat lung membranes ([125I]-iodocyanopindolol ligand binding assay); conditions: 1 μM test compound; ratio of inhibiting specific binding of [125I]-iodocyanopindolol to rat lung membrane SMBS
Protocol: Receptor-Binding Assessment Test of Compounds Using Rat Lung Membranes
The assessment test was carried out according to the method of Sugasawa, T. et al., J. Biol. Chem., 272, 21244-21252 (1997).
Preparation of Rat Lung Membranes
Lung taken out from SD male rat (7-week old under test, Charles River Laboratories Japan, Inc.) was removed trachea and blood vessels to shred and washed with iced tris-saline buffer (10 mM tris hydrochloric acid-154 mM sodium chloride, pH7.4). The resultant was homogenized by Hiscotron with ice-cold tris-saline buffer containing a homogenization buffer (1 mM ethylenediaminetetraacetic acid (EDTA), 1 mM 4-(2-aminoethyl)benzenesulfonyl fluoride (AEBSF), 5 μg/ml aprotinin, 5 μg/ml leupeptine) (maximum rate: 1 minute). The supernatant after low-speed centrifugation (1500×g, 20 minutes, 4° C.) was ultracentrifuged (100000×g, 20 minutes, 4° C.), and the pellet was suspended in tris-saline buffer to store at −80° C. The protein concentrations were determined by Bio-Rad Protein Assay Kit using bovine serum albumin (BSA) as a standard.
To each well in protein-nonabsorptive round-bottom 96-well assay plate (commercially available from Iwaki Glass Co., Ltd.) were added tris-saline buffer (200 μl) containing 1 nM [^125I]-iodocyanopindolol (commercially available from Amersham plc), 10 μM serotonine, 20 μm dl-propranolol, 10 μM phentolamine, 1.1 mM ascorbic acid and 100 μg lung membrane, and the mixture was pipetted to combine and then incubated at 37° C. for 30 minutes. The test compounds were dissolved in 100% dimethyl sulfoxide solution, and thereto was added 2 μl (final DMSO concentration: 1%). In order to calculate nonspecific binding amounts, to the mixture was added L-threo-3-(3,4-dihydroxyphenyl)-N-[3-(4-fluorophenyl)propyl]serine pyrrolidine amide at 100 μM of the final concentration as an alternative to the test compounds. During this time, 100 μl of 0.3% polyethyleneimine (PEI)/tris-saline buffer was added to MultiScreen plate (96-well B glass fiber, Millipore Cat. No. MAFB NOB10), and incubated for over 30 minutes. The resultant was filtered with aspiration (aspiration by the addition of 200 μl iced tris-saline buffer) to wash, and the reaction solutions on 96-well assay plate were filtered with aspiration to wash four times on MultiScreen plate. B glass fiber filter paper at the bottom of MultiScreen plate was punched out, and γ-ray doses of [^125I]-iodocyanopindolol trapped on the filter paper were determined as binding amounts. The binding amounts in the presence of DMSO (final concentration: 1%) were total binding amounts, and the binding amounts in the presence of 100 μM L-threo-3-(3,4-dihydroxyphenyl)-N-[3-(4-fluorophenyl)propyl]serine pyrrolidine amide were nonspecific binding amounts. The values subtracted the nonspecific binding amounts from the total binding amounts were the specific binding amounts. The binding activity of a compound was calculated according to the following formula, which was shown in the ratio of inhibiting the specific binding of [^125I]-iodocyanopindolol to rat lung membrane SMBS by the test compound.

[1] = tested on: Corticosterone generation; test: Assessment test of steroid hormone synthesis inhibition (Corticosterone generation in rat adrenal gland cells); format: cell-based; conditions: 10 μM test article, rat adrenal cells with cAMP, 2 hours, read-out: Steroid Synthesis Inhibition Rate (%) (10 μM)
Source text: Assessment Test of Steroid Hormone Synthesis Inhibition
• Cell Strainer (BD Falcon®) • Cell Titer-Glo® (Promega) • Collagenase from Clostridium histolyticum (Sigma-Aldrich) • Corticosterone EIA kit (Cayman) • Dimethylsulfoxide (referred to as DMSO hereinafter) (nacalai tesque) • D-MEM (GIBCO) • DNase I (Invitrogen) • Fetal Bovine Serums (referred to as FBS hereinafter) (Bioflud) • Multiple well plates for adhesive cell culture, 96 wells (IWAKI) • N^6,2′-O-Dibutyryladenosine 3′,5′-cyclic monophosphate sodium salt (referred to as cAMP hereinafter) (Sigma) • Penicillin Streptomycin Mixed Solution (nacalai tesque)
Control examples 1 to 4: Control example 1 was Example 350 of Patent Document 2. Control examples 2 to 4 were synthesized according to Patent Document 2.
Adrenal glands were taken out from rats, and removed excess connective tissues, adiposes and membranes in D-MEM. The adrenal glands were transferred to polytubes, and quickly segmentalized with scissors. Thereto was added D-MEM containing 1 mg/mL collagenase and 0.25 μL DNase 1, and then the mixture was shaken at 37° C. for 10 minutes in 80 times/minute. Then, the mixture was pipetted by 1 mL truncated pipette tip, and shaken again under the same condition. After 10 minutes, the mixture was pipetted again by 1 mL pipette tip, and the cell suspension was filtered through metal mesh. The filtrate was centrifuged at 4° C. for 5 minutes in 500 g. The supernatant was removed, and thereto was added a mixed solution of 0.16 M NH4Cl and 0.17 M Tris-HCl in 3 mL. The mixture was let stand on ice for 5 minutes, and then centrifuged under the same condition. Then, the supernatant was removed and then thereto was added D-MEM. The cell suspension was prepared and centrifuged under the same condition. Again, the supernatant was removed and then thereto was added D-MEM to give a cell suspension. The cell suspension was filtered by Cell Strainer (BD Falcon®). The filtrate was centrifuged under the same condition. After the completion of the centrifugation, the supernatant was removed, and thereto was added D-MEM containing 1% Penicillin Streptomycin Mixed Solution and 10% FBS. The mixture was seeded in Multiple well plate for adhesive cell culture, 96 wells (IWAKI) in 10000 cells/well, and incubated at 37° C. overnight in CO2 incubator.
Test article concentrations were prepared in DMSO to 2000 μM, and D-MEM containing 20 μM test article in D-MEM was prepared.
Cell-seeded plate was incubated overnight, and then the medium was removed and thereto was added D-MEM containing 20 μM test article in 50 μL/well. Then, to the mixture was promptly added D-MEM containing 20 μM cAMP in 50 μL/well so that the final concentration of the test article was 10 μM. After the addition of 2 types of D-MEM, the mixture was incubated at 37° C. for 2 hours in CO2 incubator. After 2 hours, the supernatant (50 μL) of the medium was collected. For cells, the cell toxicity of the test article was assessed according to a conventional method using Cell Titer-Glo® (Promega). For the collected supernatant, the Corticosterone concentration in the supernatant was determined according to a conventional method using Corticosterone EIA kit (Cayman).
The inhibition rate of 10 μM test article to Corticosterone generation was calculated according to the following formula confirming that the cell toxicity by the test article was not recognized.

[2] = tested on: Guinea pig late asthma model; test: Guinea pig late asthma model (ovalbumin sensitized, respiratory function sRaw/TV); format: in vivo; conditions: 3 mg/kg orally one hour before antigen challenge
Protocol: Assessment of Compounds in Guinea Pig Late Asthma Model
The assessment was carried out using a compound obtained in Example 52.
Hartley male guinea pigs (commercially available from Japan SLC, Inc.) were pre-bred about 1 week after arrival, and then exposed by inhalation to 2% (w/v) ovalbumin (OA) saline in a plastic box (4 guniea pigs/box) for 5 minutes using a ultrasonic nebulizer (OMRON NE-U12, condition: maximum nebulizing amounts, maximum air volume), and sensitized (day 0). The same operation was carried out on day 7. On day 14 or 15, each guinea pig was administered 2% OA by inhalation for 5 minutes to initiate a response (challenge). […]
A determination and analysis of respiratory function were carried out according to the method of Penny A. Hutson et al. Am Rev Respir Dis 1988 137, 548-557. The respiratory function was determined before the antigen challenge (before drug administration) and 5 minutes and 1, 2, 3, 4, 5, 6, 7 and 8 hours after the antigen challenge, and wave profiles were imported using MacLab Chart v3.4 (AD Instruments) and analyzed later. […] The sRaw/TV values subtracting the former values were plotted against measured times, and each area under the curve (AUC4-8 hr) of each animal was calculated to compare each other in the range of 4 to 8 hours after the antigen challenge. […]

Binding Activity (%) (1 μM) (rat lung membrane SMBS): 59%
SMILES: CNC(=O)NCCn1c(-c2ccc(C(=O)N3CCOCC3)cc2)cs/c1=N\c1cccc(F)c1 [Example 52, N-{2-[(2Z)-2-[(3-Fluorophenyl)imino]-4-[4-(morpholin-4-ylcarbonyl)phenyl]-1,3-thiazol-3(2H)-yl]ethyl}-N′-methylurea]
inhibition at 10 µM [1]: 0% | AUC4-8 hr ((sRaw/TV) · h) ([2]; 4 to 8 hours after antigen challenge): 0.427 (sRaw/TV) · h | Improvement Rate (%) ([2]; AUC4-8 hr versus control group, p<0.01 Dunnett's test): 54%
